In US10144736B2 (Gilead Sciences, Inc., priority 2006, dated 2018):
Like-named read-outs stand apart in the source and are kept apart here.

Columns and labels:
HCV replicon = experiment: Anti-HCV replicon assay (EC50, luciferase readout); type: cell-based, hepatitis C virus; conditions: human hepatoma Huh-7 cell line harbouring a HCV replicon, 3 days incubation, luciferase signal
Protocol: (§1) The anti HCV activity of specifically substituted pteridine derivatives was tested in a human hepatoma Huh-7 cell line harbouring a HCV replicon. The assay comprised the following steps:
(§2) Step 1: compound preparation and serial dilution involved the following alternatives, depending upon the water solubility of pteridine derivative being tested:
(§3) • 1. with respect to water soluble pteridine derivatives, 500 μL of solution in cell media (DMEM, 10% FBS, P/S, L-Glutamine) was prepared with a concentration that is twice the concentration of the starting final serial dilution concentration. 150 μL of the solution was added to the pre-specified wells in column 1 of a 96-well cell culture plate (PerkinElmer, white plate, cat. #6005181, for EC50 assay; black plate, cat. #6005182 for CC50 assay). The rest of the plate, i.e. columns 2-12, was filled with 100 μL of cell media. The plate was then placed on a Precision 2000 Workstation in order to start serial dilution. Pteridine compounds were diluted three times each step from column 1 to column 10. Column 11 was used as a blank control (no pteridine compound added). • 2. With respect to poorly water soluble pteridine derivatives, DMSO was used as a solvent, and serial dilution was performed in 50% DMSO in water, in a 384-well plate. A solution containing the relevant compound at 100-fold the concentration of the starting final serial dilution concentration was prepared in 50% DMSO in water and added to the pre-specified wells in column 1 of a polypropylene 384-well plate. This plate was then placed on a Precision 2000 Workstation in order to start serial dilution. After serial dilution, 2 μL of the solution was transferred from the 384-well plate to a 96-well cell culture plate containing 100 μL of cell media on a Biomek FX Workstation. The DMSO concentration in the final assay condition was 0.5% after cells have been added to the plate and the total volume in each well was brought to 200 μL. Step 2: to each well of the serial dilution plate prepared in step 1, 100 μL of cell media containing 6000 suspended Huh-7 HCV replicon cells was added with a Multidrop workstation. Plates were incubated for 3 days at 37° C. with 5% CO2. Step 3: detection: • 1) with respect to the EC50 assay, the media in a 96-well cell culture plate was aspirated with a Biotek EL405 plate-washer. A volume of 200 μL of a solution containing a 1:1 mixture of a cell-lysis buffer (commercially available from Promega, Luciferase Cell Culture Lysis 5X Reagent, cat. #E1531) and a luciferase substrate solution (commercially available from Promega, Luciferase Assay, cat. #E4550) was added to each well of the plate with Multidrop. The plate was incubated for 30 minutes at room temperature before the luminescence signal was measured with a TopCount plate-reader. • 2) with respect to the CC50 assay, 100 μL of a pre-mixed CellTiter-Glo (commercially available from Promega, cat. #G7572) solution was added directly to the cell culture in each well of the plate and the luminescence signal was measured with a TopCount plate-reader after 10 minutes of incubation at room temperature.
(§4) Results are expressed by the following data: • the 50% effective concentration (EC50), i.e. the concentration that protects 50% of the cell monolayer from virus-induced cythopathic effect. • the 50% cytostatic concentration (CC50), i.e. the concentration that results in 50% inhibition of cell growth.

Huh-7 HCV replicon cells = experiment: CC50 assay (CellTiter-Glo) in Huh-7 HCV replicon cells; type: cell-based, human; conditions: 3 days incubation, 50% cytostatic concentration
Protocol: as §1, §2, §3, §4

[1] = as above; type: cell-based, human; conditions: human, 3 days incubation, 50% cytostatic concentration
Protocol: as §1, §2, §3, §4

[2] = Hepatitis C virus, 72 h, read-out: EC50

| SMILES | EC50 (HCV replicon; [2]) | CC50 at 3 days [1] | other results |
| --- | --- | --- | --- |
| Nc1nc(N2CCOCC2)c2nc(-c3ccc(OC(F)(F)F)cc3)cnc2n1 [Example 86] | – | – | EC50 (HCV replicon; read-out: EC50): 0.3 to 1 µM; CC50 (Huh-7 HCV replicon cells): 10 to 20 µM |
| Nc1nc(N2CCOCC2)c2nc(-c3cccc(F)c3F)cnc2n1 [Example 113, 6-(2,3-difluorophenyl)-4-morpholino-pteridin-2-ylamine] | – | – | EC50 (HCV replicon): 1 to 10 µM; CC50 (Huh-7 HCV replicon cells): > 20 µM |
| CC(C)C(=O)Nc1ccc(-c2cnc3nc(N)nc(N4CCOCC4)c3n2)cc1 [Example 137, N-(4-(2-amino-4-morpholinopteridin-6-yl)phenyl)isobutyramide] | < 0.3 µM | 10 to 20 µM | – |
| CC(C)(C)C(=O)Nc1ccc(-c2cnc3nc(N)nc(N4CCOCC4)c3n2)cc1 [Example 138, N-(4-(2-amino-4-morpholinopteridin-6-yl)phenyl)pivalamide] | 1 to 10 µM | 10 to 20 µM | – |
| C[C@H](NC(=O)OC(C)(C)C)C(=O)Nc1ccc(-c2cnc3nc(N)nc(N4CCOCC4)c3n2)cc1 [Example 140, (S)-tert-butyl 1-(4-(2-amino-4-morpholinopteridin-6-yl)phenylamino)-1-oxopropan-2-ylcarbamate] | 1 to 10 µM | < 10 µM | – |
| Nc1nc(N2CCOCC2)c2nc(-c3ccc(NC(=O)C4CC4)cc3)cnc2n1 [Example 142, Cyclopropane carboxylic acid[4-(2-amino-4-morpholin-4-yl-pteridin-6-yl)-phenyl]-amide] | – | – | EC50 (HCV replicon; read-out: EC50): 0.3 to 1 µM; CC50 (Huh-7 HCV replicon cells): < 10 µM |
| Nc1nc(N)c2nc(-c3cccc(F)c3F)cnc2n1 [Example 143, 6-(2,3-difluoro-phenyl)-pteridine-2,4-diamine] | 1 to 10 µM | 10 to 20 µM | – |
| Nc1nc(N2CCOCC2)c2nc(-c3ccc(NC(=O)[C@@H](N)CO)cc3)cnc2n1 [Example 144, (S)-2-amino-N-(4-(2-amino-4-morpholinopteridin-6-yl)phenyl)-3-hydroxypropanamide] | 1 to 10 µM | > 20 µM | – |
| C[C@H](N)C(=O)Nc1ccc(-c2cnc3nc(N)nc(N4CCOCC4)c3n2)cc1 [Example 145, (S)-2-amino-N-(4-(2-amino-4-morpholinopteridin-6-yl)phenyl)-propanamide] | 0.3 to 1 µM | > 20 µM | – |
| COc1nc(N)nc2ncc(-c3ccc(F)cc3)nc12 [Example 149, 6-(4-Fluorophenyl)-4-methoxy-pteridin-2-ylamine] | 0.3 to 1 µM | > 20 µM | – |
| CC(C)Oc1nc(N)nc2ncc(-c3ccc(F)cc3)nc12 [Example 150, 6-(4-Fluorophenyl)-4-isopropoxy-pteridin-2-ylamine] | < 0.3 µM | > 20 µM | – |
| CCCCOc1nc(N)nc2ncc(-c3ccc(F)cc3)nc12 [Example 152, 4-Butoxy-6-(4-fluorophenyl)-pteridin-2-ylamine] | 1 to 10 µM | > 20 µM | – |
| CC(C)(O)CCOc1nc(N)nc2ncc(-c3ccc(F)cc3)nc12 [Example 154, 4-[2-Amino-6-(4-fluorophenyl)-pteridin-4-yloxy]-2-methyl-butan-2-ol] | – | > 20 µM | EC50 (HCV replicon; Hepatitis C virus, Huh-7, 72 h): 1 to 10 µM |
| Nc1nc(OCC2CC2)c2nc(-c3ccc(F)cc3)cnc2n1 [Example 157, 4-Cyclopropylmethoxy-6-(4-fluorophenyl)-pteridin-2-ylamine] | 1 to 10 µM | > 20 µM | – |
| CCCOc1nc(N)nc2ncc(-c3ccc(F)cc3)nc12 [Example 159, 6-(4-Fluorophenyl)-4-propoxy-pteridin-2-ylamine] | 1 to 10 µM | > 20 µM | – |
| CCSc1nc(N)nc2ncc(-c3ccc(F)cc3)nc12 [Example 164, 4-ethylthio-6-(4-fluorophenyl)-pteridin-2-ylamine] | 0.3 to 1 µM | > 20 µM | – |
